Assays:
C-Raf kinase = target: T1, C-Raf kinase (Homo sapiens, UniProt P04049, Y340D/Y341D); assay: Biochemical assay for C-Raf.1 (coupled pyruvate kinase/lactate dehydrogenase); conditions: read-out: CRAF.1 IC50
T1 construct: Y340D,; GST (N); purchased Sigma
Procedure: Biochemical Assay for C-Raf.1
(§1) Activity of C-Raf kinase (SEQ. ID NO: 3) was determined spectroscopically using a coupled pyruvate kinase/lactate dehydrogenase assay that continuously monitors the ATP hydrolysis-dependent oxidation of NADH (e.g., Schindler et al., Science, 2000, 289, 1938-1942). Assays were conducted in 384-well plates (100 μL final volume) using 0.43 nM C-Raf (Sigma), 1.5 units pyruvate kinase, 2.1 units lactate dehydrogenase, 1 mM phosphoenol pyruvate, 0.28 mM NADH, 30.1 nM MEK (SignalChem), and 1 mM ATP in assay buffer (100 mM Tris, pH 7.5, 15 mM MgCl2, 0.5 mM DTT, 0.1% octyl-glucoside, 0.002% (w/v) BSA, and 0.002% Triton X-100). Inhibition of C-Raf was measured by adding serial diluted test compound (final assay concentration of 1% DMSO). A decrease in absorption at 340 nm was monitored continuously for 6 h at 30° C. on a multi-mode microplate reader (BioTek). The reaction rate was calculated using the 4 to 5 h time frame. The reaction rate at each concentration of compound was converted to percent inhibition using controls (i.e., reaction with no test compound and reaction with a known inhibitor) and IC50 values were calculated by fitting a four-parameter sigmoidal curve to the data using Prism (GraphPad software).

A-Raf kinase = target: T2, A-Raf kinase (Homo sapiens, UniProt P10398, Y301D/Y302D); assay: Biochemical assay for A-Raf.1 (coupled pyruvate kinase/lactate dehydrogenase); conditions: read-out: ARAF.1 IC50
T2 construct: purchased Sigma
T2 sequence (P10398 with tags, fused parts or gaps Y301D/Y302D): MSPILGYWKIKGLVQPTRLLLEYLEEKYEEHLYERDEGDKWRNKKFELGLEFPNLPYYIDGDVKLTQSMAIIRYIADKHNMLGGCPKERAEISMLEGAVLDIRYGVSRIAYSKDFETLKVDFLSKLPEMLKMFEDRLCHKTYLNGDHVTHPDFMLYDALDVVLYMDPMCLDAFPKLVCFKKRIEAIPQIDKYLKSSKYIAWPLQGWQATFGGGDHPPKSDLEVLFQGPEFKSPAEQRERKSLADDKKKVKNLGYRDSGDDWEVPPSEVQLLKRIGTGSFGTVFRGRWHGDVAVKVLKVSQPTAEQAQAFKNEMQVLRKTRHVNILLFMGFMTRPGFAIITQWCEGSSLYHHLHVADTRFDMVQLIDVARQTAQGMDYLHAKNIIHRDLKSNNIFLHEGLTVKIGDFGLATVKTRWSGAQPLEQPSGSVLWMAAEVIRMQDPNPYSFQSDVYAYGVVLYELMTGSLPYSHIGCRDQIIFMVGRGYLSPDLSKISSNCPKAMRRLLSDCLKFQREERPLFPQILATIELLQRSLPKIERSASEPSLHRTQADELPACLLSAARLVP
Procedure: Biochemical assay for A-Raf.1
as §1, with “A-Raf” for “C-Raf”, “NO. 1)” for “NO: 3)”, “5.55” for “0.43”

Miapaca-2 cells = assay: MiaPaca-2 cell proliferation assay (1), resazurin, 96-well; assay type: cell-based; conditions: Homo sapiens, MIA PaCa-2, inhibition of cell proliferation
Procedure: MiaPaca-2 Cell Proliferation Assay (1)
Miapaca-2 cells (catalog #CRL-1420) are obtained from the American Type Culture Collect (ATTC, Manassas, VA). Briefly, cells were grown in DMEM supplemented with 10% characterized fetal bovine serum (Invitrogen, Carlsbad, CA), 2.5% New Zealand sourced horse serum and 1% Penicillin/Streptomycin/L-Glutamine at 37° C., 5% CO2, and 95% humidity. Cells are expanded until reaching 70-95% confluency at which point they are subcultured or harvested for assay use. A serial dilution of test compound is dispensed into a 96-well black clear bottom plate in triplicate. Three thousand cells are added per well in 200 μL complete growth medium in the 96-well plate. Plates are incubated for 67-72 hours at 37° C., 5% CO2, and 95% humidity. At the end of the incubation, 40 μL of a 440 μM solution of resazurin (Sigma, St. Louis, MO) in PBS is added to each well of the plate and plates are incubated for an additional 5-6 hours at 37° C., 5% CO2, and 95% humidity. Plates are read on a Synergy2 or equivalent reader (Biotek, Winooski VT) using an excitation of 540 nm and an emission of 600 nm. Data is analyzed using Prism software (GraphPad, San Diego, CA) to calculate IC50 values.

B-Raf kinase = target: T3, B-Raf kinase (Homo sapiens, UniProt P15056); assay: Biochemical assay for B-Raf.1 (coupled pyruvate kinase/lactate dehydrogenase); conditions: read-out: BRAF.1 IC50
T3 construct: GST (N); purchased Sigma
T3 sequence (P15056 416-766): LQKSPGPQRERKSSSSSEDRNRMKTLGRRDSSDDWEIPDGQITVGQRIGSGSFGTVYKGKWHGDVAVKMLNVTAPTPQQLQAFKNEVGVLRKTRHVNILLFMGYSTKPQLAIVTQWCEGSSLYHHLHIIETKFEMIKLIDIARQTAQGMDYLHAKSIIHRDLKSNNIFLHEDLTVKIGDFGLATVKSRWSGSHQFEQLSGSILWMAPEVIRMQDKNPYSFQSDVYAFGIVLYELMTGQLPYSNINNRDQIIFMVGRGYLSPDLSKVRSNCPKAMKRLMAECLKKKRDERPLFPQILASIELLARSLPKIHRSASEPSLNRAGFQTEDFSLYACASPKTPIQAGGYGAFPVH
Procedure: Biochemical Assay for B-Raf.1
as §1, with “B-Raf” for “C-Raf”, “2)” for “3)”, “0.13” for “0.43”

B-Raf (V600E) kinase = target: T4, B-Raf (V600E) kinase (Homo sapiens, UniProt P15056, V600E); assay: Biochemical assay for B-Raf (V600E).1 (coupled pyruvate kinase/lactate dehydrogenase); conditions: read-out: BRAF V600E.1 IC50
T4 construct: B-Raf (V600E) residues 416-766 with a; GST (N); purchased SignalChem
T4 sequence (P15056 416-766 V600E): as the sequence (P15056 416-766) above, with V185E counted along it
Procedure: Biochemical Assay for B-Raf (V600E).1
Activity of B-Raf (V600E) (SEQ. ID NO: 4) kinase was determined spectroscopically using a coupled pyruvate kinase/lactate dehydrogenase assay that continuously monitors the ATP hydrolysis-dependent oxidation of NADH (e.g., Schindler et al., Science, 2000, 289, 1938-1942). Assays were conducted in 384-well plates (100 μL final volume) using 0.03 nM B-Raf (SignalChem), 1.5 units pyruvate kinase, 2.1 units lactate dehydrogenase, 1 mM phosphoenol pyruvate, 0.28 mM NADH, 30.1 nM MEK (SignalChem), and 1 mM ATP in assay buffer (100 mM Tris, pH 7.5, 15 mM MgCl2, 0.5 mM DTT, 0.1% octyl-glucoside, 0.002% (w/v) BSA, and 0.002% Triton X-100). Inhibition of B-Raf (V600E) was measured by adding serial diluted test compound (final assay concentration of 1% DMSO). A decrease in absorption at 340 nm was monitored continuously for 6 h at 30° C. on a multi-mode microplate reader (BioTek). The reaction rate was calculated using the 3 to 4 h time frame. The reaction rate at each concentration of compound was converted to percent inhibition using controls (i.e., reaction with no test compound and reaction with a known inhibitor) and IC50 values were calculated by fitting a four-parameter sigmoidal curve to the data using Prism (GraphPad software).

A375 cells = assay: A375 cell proliferation assay (1), resazurin, 96-well; assay type: cell-based; conditions: Homo sapiens, A-375, inhibition of cell proliferation
Procedure: A375 Cell Proliferation Assay (1)
A375 cells (catalog (#CRL-1619) are obtained from the American Type Culture Collect (ATTC, Manassas, VA). Briefly, cells were grown in DMEM High Glucose supplemented with 10% characterized fetal bovine serum (Invitrogen, Carlsbad, CA) and 1% Penicillin/Streptomycin/L-Glutamine at 37° C., 5% CO2, and 95% humidity. Cells are expanded until reaching 70-95% confluency at which point they are sub-cultured or harvested for assay use. A serial dilution of test compound is dispensed into a 96-well black clear bottom plate in triplicate. Two thousand five hundred cells are added per well in 200 μL complete growth medium in the 96-well plate. Plates are incubated for 67-72 hours at 37° C., 5% CO2, and 95% humidity. At the end of the incubation, 40 μL of a 440 μM solution of resazurin (Sigma, St. Louis, MO) in PBS is added to each well of the plate and plates are incubated for an additional 5-6 hours at 37° C., 5% CO2, and 95% humidity. Plates are read on a Synergy2 or equivalent reader (Biotek, Winooski VT) using an excitation of 540 nm and an emission of 600 nm. Data is analyzed using Prism software (GraphPad, San Diego, CA) to calculate IC50 values.

T1 sequence (P04049 307-648 Y340D/Y341D): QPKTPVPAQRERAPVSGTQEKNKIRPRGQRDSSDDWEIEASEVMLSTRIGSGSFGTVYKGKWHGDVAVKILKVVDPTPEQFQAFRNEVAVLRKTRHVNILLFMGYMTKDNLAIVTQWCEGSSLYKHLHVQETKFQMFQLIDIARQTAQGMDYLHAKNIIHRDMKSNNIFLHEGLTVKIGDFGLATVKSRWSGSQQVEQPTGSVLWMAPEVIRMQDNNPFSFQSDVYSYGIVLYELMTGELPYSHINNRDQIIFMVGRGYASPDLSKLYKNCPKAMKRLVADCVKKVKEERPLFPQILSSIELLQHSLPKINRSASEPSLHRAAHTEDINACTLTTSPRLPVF

Row | Compound | IC50 (C-Raf kinase) | IC50 (A-Raf kinase) | IC50 (Miapaca-2 cells) | IC50 (B-Raf kinase) | IC50 (B-Raf (V600E) kinase) | IC50 (A375 cells)
1 | Cc1ccc(NC(=O)Nc2cnn(C(C)(C)C)c2)cc1-c1cc(OCCO)nc(N2CCOCC2)c1 [Example 44] | 100 to 500 nM | > 1000 nM | 1000 to 10000 nM | 100 to 500 nM | ≤ 100 nM | 
2 | Cc1ccc(NC(=O)Nc2cnn(CC(F)(F)F)c2)cc1-c1cc(OCCO)nc(N2CCOCC2)c1 [Example 45] | 100 to 500 nM | > 1000 nM | 1000 to 10000 nM | > 1000 nM | ≤ 100 nM | 
3 | CC(=O)Nc1cc(-c2cc(-c3cc(NC(=O)NCCC(C)(C)C(F)(F)F)c(F)cc3C)cc(C3CC3)n2)ccn1 [Example 56] | ≤ 100 nM | > 1000 nM |  | ≤ 100 nM | ≤ 100 nM | 500 to 1000 nM
4 | Cc1cc(F)c(NC(=O)NC[C@H]2CCO2)cc1-c1cc(OCCO)nc(-c2ccnc3[nH]ncc23)c1 [Example 93] | > 1000 nM | > 1000 nM |  | > 1000 nM | > 1000 nM | 1000 to 10000 nM
5 | Cc1cc(F)c(NC(=O)N2CCC(C)(C#N)C2)cc1-c1cc(OCCO)nc(-c2ccnc3[nH]ncc23)c1 (stereo not shown) [Example 95] | 500 to 1000 nM | > 1000 nM |  | 500 to 1000 nM | ≤ 100 nM | 1000 to 10000 nM
6 | CCNC(=O)Nc1cc(-c2cc(OCCO)nc(-c3ccnc(NC(=O)C4CC4)c3)c2)c(C)cc1F [Example 98] | ≤ 100 nM | > 1000 nM |  | 100 to 500 nM | ≤ 100 nM | 1000 to 10000 nM
7 | COC1(CCNC(=O)Nc2cc(-c3ccnc(-c4ccnc(NC(=O)C5CC5)c4)c3)c(C)cc2F)CC1 [Example 116] | ≤ 100 nM | 100 to 500 nM |  | ≤ 100 nM | ≤ 100 nM | 1000 to 10000 nM
8 | COC(=O)Nc1cc(-c2cc(-c3cc(NC(=O)NCCC4CN(C)C4)cnc3C)cc(OCCO)n2)ccn1 [Example 183] | > 1000 nM | > 1000 nM |  | > 1000 nM | > 1000 nM | 1000 to 10000 nM

— patent US20230357179A1, “RAF KINASE INHIBITORS AND METHODS OF USE THEREOF” (Deciphera Pharmaceuticals, LLC, priority 2021, published 2023)
